Experimental data reported in ChEMBL document CHEMBL1275420, “Transfer of embB codon 306 mutations into clinical Mycobacterium tuberculosis strains alters susceptibility to ethambutol, isoniazid, and rifampin” (2008).
Converted amounts (≈) assume the structure as drawn.

Each molecule was assayed on Mycobacterium tuberculosis (assay: Antimycobacterial activity against Mycobacterium tuberculosis isolate 210 at 37 degC after 10 to 11 days by radiometric Bactec 460TB method).
Type: functional

With `NNC(=O)c1ccncc1` [ISONIAZID] as the molecule, how does the MIC read?
The MIC was 0.05 µg/mL (≈ 0.365 µM).

How did the MIC turn out when `CC[C@@H](CO)NCCN[C@@H](CC)CO` [ETHAMBUTOL] was run?
The MIC was 2 µg/mL (≈ 9.79 µM).

With `CO[C@H]1/C=C/O[C@@]2(C)Oc3c(C)c(O)c4c(O)c(c(/C=N/N5CCN(C)CC5)c(O)c4c3C2=O)NC(=O)/C(C)=C\C=C\[C@H](C)[C@H](O)[C@@H](C)[C@@H](O)[C@@H](C)[C@H](OC(C)=O)[C@@H]1C` [RIFAMPIN] as the molecule, how does the MIC read?
The MIC was 0.05 µg/mL (≈ 0.0608 µM).
